Measurements taken from ChEMBL document CHEMBL5729376, “SSAO inhibitors and use thereof” (2022).

Legend:
[1] = molecular target: T1, Amine oxidase [flavin-containing] A (Homo sapiens, UniProt P21397); assay: (§1) SSAO Activity Assay: Amine oxidase activity of recombinant hSSAO, hMAO-A, and hMAO-B isoforms are measured using the MAO-Glo assay kit (Promega, V1402). Ten nL test compounds (with DMSO as vehicle, 0.1% v/v for hSSAO, hMAO-A and hMAO-B) were added into assay plates by Echo, and pre-incubated with 5 μL of enzyme for 30 mins at room temperature before the addition of 5 μL of luminogenic substrate. The substrate concentration is 40 μM for human recombinant SSAO, 40 μM for human recombinant MAO-A, and 4 μM for human recombinant MAO-B. The hSSAO and hMAO-A assays were conducted in the MAO-A reaction buffer in the kit, and the MAO-B assay was conducted in the MAO-B reaction buffer. Oxidation of the substrate was conducted for 1 hr, before the addition of detecting reagent according the manufacture's protocol. The IC50 value of the tested compounds was calculated by fitting the dose response curve using a 4-parameter non-linear regression routine.
T1 sequence (P21397 whole entry): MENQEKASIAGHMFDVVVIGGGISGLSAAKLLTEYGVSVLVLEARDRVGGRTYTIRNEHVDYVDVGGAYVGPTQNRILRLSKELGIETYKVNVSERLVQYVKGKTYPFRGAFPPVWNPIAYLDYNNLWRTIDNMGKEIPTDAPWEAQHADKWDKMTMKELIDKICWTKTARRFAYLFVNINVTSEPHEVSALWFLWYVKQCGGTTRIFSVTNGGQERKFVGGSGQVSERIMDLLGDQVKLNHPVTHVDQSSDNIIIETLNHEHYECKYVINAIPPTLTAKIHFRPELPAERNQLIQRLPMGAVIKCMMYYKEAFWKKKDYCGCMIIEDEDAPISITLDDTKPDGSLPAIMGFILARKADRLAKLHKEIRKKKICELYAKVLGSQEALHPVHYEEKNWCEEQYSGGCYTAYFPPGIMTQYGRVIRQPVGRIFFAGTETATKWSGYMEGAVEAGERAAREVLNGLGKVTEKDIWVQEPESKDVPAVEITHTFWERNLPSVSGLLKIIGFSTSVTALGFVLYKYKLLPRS

[2] = molecular target: T2, Amine oxidase [flavin-containing] B (Homo sapiens, UniProt P27338); assay: as §1
T2 sequence (P27338 whole entry): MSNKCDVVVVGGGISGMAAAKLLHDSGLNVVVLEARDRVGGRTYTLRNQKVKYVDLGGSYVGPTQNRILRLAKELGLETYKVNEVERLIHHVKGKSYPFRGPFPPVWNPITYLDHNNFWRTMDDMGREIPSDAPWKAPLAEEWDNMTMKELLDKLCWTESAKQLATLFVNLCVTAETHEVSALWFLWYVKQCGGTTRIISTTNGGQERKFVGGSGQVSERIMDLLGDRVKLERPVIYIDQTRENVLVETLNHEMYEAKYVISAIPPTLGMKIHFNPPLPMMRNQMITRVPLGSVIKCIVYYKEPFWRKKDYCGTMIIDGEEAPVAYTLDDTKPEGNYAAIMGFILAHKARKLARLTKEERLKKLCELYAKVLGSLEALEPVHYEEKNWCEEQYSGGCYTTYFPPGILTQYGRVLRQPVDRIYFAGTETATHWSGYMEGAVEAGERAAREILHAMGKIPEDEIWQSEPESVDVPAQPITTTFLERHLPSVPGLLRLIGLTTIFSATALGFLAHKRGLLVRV

Row | Compound | IC50 [1] [µM] | IC50 [2] [µM]
1 | C[C@@H](CN1CCC2(CCCC2)C1=O)CS(=O)(=O)c1ccc(OC/C(=C/F)CN)cc1 | > 30 | < 10
2 | C[C@H](CN1CCCCC1=O)CS(=O)(=O)c1ccc(OC/C(=C/F)CN)cc1 | > 30 | > 30
3 | CC(C)n1nc(CS(=O)(=O)c2ccc(OC/C(=C/F)CN)cc2)ccc1=O | > 30 | < 10
4 | NC/C(=C\F)COc1ccc(S(=O)(=O)CC23CCC(C(=O)O)(CC2)CC3)cc1 | > 30 | > 30
5 | C[C@@H](CS(=O)(=O)c1ccc(OC/C(=C/F)CN)cc1)N1CCCCC1=O | > 30 | < 10
6 | CCN(CC(C)CS(=O)(=O)c1ccc(OC/C(=C/F)CN)cc1)C(=O)C(C)C (configuration not stated) | > 30 | > 30
7 | CC(C)N1CCN(CS(=O)(=O)c2ccc(OC/C(=C/F)CN)cc2)C(=O)C1 | > 30 | > 30
8 | NC/C(=C\F)COc1ccc(S(=O)(=O)CN2CCCC2=O)cc1 | > 30 | > 30
9 | NC/C(=C/F)COc1ccc(S(=O)(=O)CC23CCC(NC(=O)C4CC4)(CC2)CC3)cc1 | > 30 | < 10
10 | CC(C)(CN1CCOCC1)CS(=O)(=O)c1ccc(OC/C(=C/F)CN)cc1 | > 30 | > 30
11 | C[C@@H](CN1CCCCC1=O)CS(=O)(=O)c1ccc(OC/C(=C/F)CN)cc1 | > 30 | > 30
12 | NC/C(=C\F)COc1ccc(S(=O)(=O)Cn2ccccc2=O)cc1 | > 30 | < 10
13 | C[C@H](CN1CCOCC1)CS(=O)(=O)c1ccc(OC/C(=C/F)CN)cc1 | > 30 | > 30
14 | NC/C(=C\F)COc1ccc(S(=O)(=O)CC2CCCN(C(=O)C3CCCC3)C2)cc1 (configuration not stated) | 10 to 30 | > 30
15 | NC/C(=C\F)COc1ccc(S(=O)(=O)Cc2cnc(N3CCCC3)nc2)cc1 | > 30 | < 10
16 | NC/C(=C\F)COc1ccc(S(=O)(=O)CC2(CN3CCCCC3=O)CC2)cc1 | > 30 | > 30
17 | C[C@@H](CN1CCOCC1)CS(=O)(=O)c1ccc(OC/C(=C/F)CN)cc1 | > 30 | > 30
18 | NC/C(=C\F)COc1ccc(S(=O)(=O)CC23CC(C(=O)NC4CCC4)(C2)C3)cc1 | > 30 | < 10
19 | NC/C(=C\F)COc1ccc(S(=O)(=O)CC23CCC(C(=O)NC4CCC4)(CC2)C3)cc1 | > 30 | < 10
20 | C[C@H](CN1CCC2(CCCC2)C1=O)CS(=O)(=O)c1ccc(OC/C(=C/F)CN)cc1 | > 30 | < 10
21 | CC(C)n1ccc(CS(=O)(=O)c2ccc(OC/C(=C/F)CN)cc2)cc1=O | > 30 | < 10
